Laboratory results published in ChEMBL document CHEMBL1134220, “The synthesis of beta-peptides containing guanidino groups” (Bioorg Med Chem Lett, 2001).

Experiment: pKa was determined
Assay type: physicochemical

Q: Which pKa does the source give for N=C(N)N [GUANIDINE] here?
A: 13.5
